Assays:
[1] = tested on: cucumber gray mold; test: Activity in vitro (96-well, High Through Put): inhibition rate against cucumber gray mold; assay type: cell-based
Procedure: The method is as followed: High Through Put is used in the test. The compound is dissolved in a proper solvent to become a testing solution whose concentration is designed. The solvent is selected from acetone, methanol, DMF and so on according to their dissolving capability to the sample. In a no animalcule condition, the testing solution and pathogens suspension are added into the cells of 96 cells culture board, which then should be placed in the constant temperature box. 24 hours later, pathogen germination or growth can be investigated by eyeballing, and the activity in vitro of the compound is evaluated based on germination or growth of control treatment.

[2] = tested on: cucumber downy mildew; test: Protectant activity in vivo (whole plant) against cucumber downy mildew
Procedure: (§1) The method is as followed: The whole plant is used in this test. The compound is dissolved in a proper solvent to get mother solution. The proper solvent is selected from acetone, methanol, DMF and so on according to their dissolving capability to the sample. The volume rate of solvent and testing solution (v/v) is equal to or less than 5%. The mother solution is diluted with water containing 0.1% tween-80 to get the testing solution whose concentration is designed. The testing solution is sprayed to the host plant by a special plant sprayer. The plant is inoculated with fungus after 24 hours. According to the infecting characteristic of fungus, the plant is stored in a humidity chamber and then transferred into greenhouse after infection is finished. And the other plants are placed in greenhouse directly. The activity of compound is obtained by eyeballing after 7 days in common.

[3] = tested on: corn rust; test: Protectant activity in vivo (whole plant) against corn rust; details: for protectant activity against corn rust in vivo: dose 400 mg/L
Procedure: as §1

Compound | protectant activity against cucumber downy mildew in vivo ([2]; dose 50 mg/L) [%] | protectant activity against cucumber downy mildew in vivo ([2]; dose 100 mg/L) [%] | protectant activity against cucumber downy mildew in vivo ([2]; dose 400 mg/L) [%] | protectant activity against corn rust in vivo [3] [%] | other results
N#Cc1c(Cl)c(Cl)c(Nc2ccc([N+](=O)[O-])cc2Cl)c(Cl)c1C#N [Compound A-15] | 100 | 100 | 100 | 100 | the inhibition rate against cucumber gray mold (%) ([1]; 0.3 mg/L): 100%; the inhibition rate against cucumber gray mold (%) ([1]; 0.9 mg/L): 100%; the inhibition rate against cucumber gray mold (%) ([1]; 2.8 mg/L): 100%; the inhibition rate against cucumber gray mold (%) ([1]; 8.3 mg/L): 100%
N#Cc1c(Cl)c(Cl)c(Nc2cc(C(F)(F)F)ccc2Cl)c(Cl)c1C#N [Compound A-19] | – | – | 100 | 80 | –
N#Cc1c(Cl)c(Cl)c(Nc2ccc(Cl)cc2[N+](=O)[O-])c(Cl)c1C#N [Compound A-23] | – | – | 100 | 80 | –
N#Cc1cc(C#N)c(Cl)c(Nc2c(Cl)c(Cl)c(C#N)c(C#N)c2Cl)c1 [Compound A-59] | – | – | 100 | 100 | –
N#Cc1c(Cl)c(Cl)c(Nc2cc(Cl)cnc2Cl)c(Cl)c1C#N [Compound A-85] | – | – | 100 | 80 | –
N#Cc1c(Cl)c(Cl)c(Nc2ccc(F)cc2F)c(C#N)c1Cl [Compound B-14] | – | – | 100 | 100 | –
N#Cc1cc([N+](=O)[O-])ccc1Nc1c(Cl)c(Cl)c(C#N)c(Cl)c1C#N [Compound B-38] | – | – | 100 | 100 | –
N#Cc1c(Cl)c(Cl)c(Nc2c(Br)cc([N+](=O)[O-])cc2Br)c(C#N)c1Cl [Compound B-57] | 100 | 100 | 100 | 100 | the inhibition rate against cucumber gray mold (%) ([1]; 0.9 mg/L): 80%; the inhibition rate against cucumber gray mold (%) ([1]; 2.8 mg/L): 100%; the inhibition rate against cucumber gray mold (%) ([1]; 8.3 mg/L): 100%; the protectant activity (%) against cucumber downy mildew ([2]; 12.5 mg/L): 30%; the protectant activity (%) against cucumber downy mildew ([2]; 25 mg/L): 100%; the protectant activity (%) against cucumber downy mildew ([2]; 50 mg/L): 100%; the protectant activity (%) against cucumber downy mildew ([2]; 100 mg/L): 100%; protectant activity against cucumber downy mildew in vivo ([2]; dose 25 mg/L): 100%; the protectant activity (%) against corn rust ([3]; 6.25 mg/L): 60%; the protectant activity (%) against corn rust ([3]; 25 mg/L): 80%; the protectant activity (%) against corn rust ([3]; 100 mg/L): 85%; the protectant activity (%) against corn rust ([3]; 400 mg/L): 100%
Cc1c(Cl)c([N+](=O)[O-])cc([N+](=O)[O-])c1Nc1c(Cl)c(Cl)c(C#N)c(Cl)c1C#N [Compound B-68] | – | 100 | 100 | – | inhibition rate against cucumber gray mold ([1]; in vitro, dose 0.9 mg/L): 80%
N#Cc1c(F)c(F)c(Nc2c(Cl)cc(C(F)(F)F)cc2Cl)c(C#N)c1F [Compound B-111] | 98 | 100 | 100 | 100 | –

— patent US8937072B2, “Substituted cyanoaniline compounds, preparation and use thereof” (Sinochem Corporation, priority 2011, dated 2015)
